# Laboratory results: paper PMC8761715 (Clinical Pharmacokinetics, 2021)
# Tests used:
# P-gp/BCRP = settings: cited from earlier work
# CYP3A = settings: cited from earlier work
# CYP2J2 = settings: cited from earlier work
# [1] = cited from earlier work
# [2] = cited from earlier work; remark: listed apart in the source
# [3] = cited from earlier work; remark: listed apart in the source
# [4] = Pharmacokinetics of microdosed rivaroxaban; settings: rivaroxaban 25 µg microdose with the azole named as label, vs baseline
# CYP2D6 = settings: multiple doses of isavuconazole; cited from earlier work
# CYP2C9 = settings: cited from earlier work
# CYP2C19 = settings: cited from earlier work
# [5] = Plasma pharmacokinetics of the azole antifungals; format: in vivo, human; settings: after first 200 mg dose, fasting; LLOQ 0.1 µg/mL
# [6] = posaconazole as tablets; general statement, ref not given; cited from earlier work
# [7] = rivaroxaban with more than one combined P-gp and CYP3A4 inhibitor; atrial fibrillation patients; 95% CI 1.01–1.85, p = 0.04; cited from earlier work
# [8] = Pharmacokinetics of microdosed edoxaban
smiles,measurement,setting,value
"C[C@@H](c1ncncc1F)[C@](O)(Cn1cncn1)c1ccc(F)cc1F [Voriconazole, voriconazole]",P-gp/BCRP inhibitor classification,P-gp/BCRP,"not P-gp/BCRP, inhibitor"
same,CYP3A inhibitor classification,CYP3A,Strong
"CC(=O)N1CCN(c2ccc(OCC3COC(Cn4ccnc4)(c4ccc(Cl)cc4Cl)O3)cc2)CC1 (stereo not drawn) [Ketoconazole, ketoconazole]",CYP2J2 inhibitor classification,CYP2J2,potent inhibitor
same,"Rivaroxaban AUC increase with ketoconazole, published",[1],2.6 fold
same,"Edoxaban AUC increase with ketoconazole, published",[2],1.9 fold
same,CYP3A inhibitor classification,CYP3A,Strong
same,"Apixaban Cmax increase with ketoconazole, published","[3]; similar perpetrator dose, longer pretreatment",1.6 fold
"C[C@@H](c1nc(-c2ccc(C#N)cc2)cs1)[C@](O)(Cn1cncn1)c1cc(F)ccc1F [Isavuconazole, isavuconazole]",Effect of azole on rivaroxaban pharmacokinetics (in words),[4],did not alter any pharmacokinetic parameters
same,Increase in dextromethorphan exposure,CYP2D6,< 20%
same,P-gp/BCRP inhibitor classification,P-gp/BCRP,"P-gp inhibitor, but not BCRP inhibitor"
same,CYP3A inhibitor classification,CYP3A,Weak to moderate
"OC(Cn1cncn1)(Cn1cncn1)c1ccc(F)cc1F [Fluconazole, fluconazole]","Rivaroxaban CL/F reduction with fluconazole, published","[1]; therapeutic dose of rivaroxaban, 4 days pre-exposure",29%
same,CYP2C9 inhibitor classification,CYP2C9,moderate
same,CYP2C19 inhibitor classification,CYP2C19,strong
same,P-gp/BCRP inhibitor classification,P-gp/BCRP,"not P-gp/BCRP, inhibitor"
same,CYP3A inhibitor classification,CYP3A,Mainly moderate
"CCC(C)n1ncn(-c2ccc(N3CCN(c4ccc(OCC5COC(Cn6cncn6)(c6ccc(Cl)cc6Cl)O5)cc4)CC3)cc2)c1=O (stereo not drawn) [Itraconazole, itraconazole]",Azole plasma concentrations (in words),[5],below the LLOQ
same,P-gp/BCRP inhibitor classification,P-gp/BCRP,P-gp/BCRP inhibitor
same,CYP3A inhibitor classification,CYP3A,Strong
"CC[C@@H]([C@H](C)O)n1ncn(-c2ccc(N3CCN(c4ccc(OC[C@@H]5CO[C@@](Cn6cncn6)(c6ccc(F)cc6F)C5)cc4)CC3)cc2)c1=O [Posaconazole, posaconazole]",P-gp/BCRP inhibitor classification,P-gp/BCRP,in vitro P-gp/BCRP inhibitor
same,CYP3A inhibitor classification,CYP3A,Strong
same,Time at which maximum plasma concentrations are reached (tmax),[6],4 to 5 h
"COc1ccc(-n2nc(C(N)=O)c3c2C(=O)N(c2ccc(N4CCCCC4=O)cc2)CC3)cc1 [Apixaban, apixaban]",Contribution of CYP enzymes other than CYP3A to overall elimination of apixaban,[3],6%
"O=C(NC[C@H]1CN(c2ccc(N3CCOCC3=O)cc2)C(=O)O1)c1ccc(Cl)s1 [Rivaroxaban, rivaroxaban]",Rivaroxaban P-gp/BCRP-dependent active renal secretion,[1],approximately 30 % of a dose
same,Rivaroxaban bioavailability,[1],80–100%
same,Rivaroxaban partial clearance by non-enzymatic hydrolysis,[1],approximately 14%
same,Rivaroxaban partial clearance mediated by CYP2J2,[1],approximately 14%
same,Rivaroxaban partial clearance mediated by CYP3A,[1],approximately 18 % of a dose
same,Bleeding risk ratio (RR) compared with warfarin,[7],1.37
"CN1CCc2nc(C(=O)N[C@@H]3C[C@@H](C(=O)N(C)C)CC[C@@H]3NC(=O)C(=O)Nc3ccc(Cl)cn3)sc2C1 [Edoxaban, edoxaban]","Edoxaban individual CL/F, range of previous study",[2]; 18 study participants,490 to 1460 mL/min
same,Edoxaban bioavailability,[2],approximately 62%
same,Edoxaban dose eliminated unchanged in the urine,[2],approximately 24%
same,Edoxaban dose excreted unchanged in the faeces,[2],About 50%
same,Part of edoxaban elimination by CYP-mediated metabolism,[2],< 4%
same,Average CL/F of edoxaban higher than published values,[8]; compared with 18 study participants of ref 24,30%
same,"Edoxaban individual CL/F, observed range","[8]; this study, 50 µg microdose",600 to 2200 mL/min
